From article PMC6581720 (Frontiers in Microbiology, 2019)

Target: T1, SpoIVB (sporulation factor IV B protease) (Bacillus subtilis, UniProt P17896, S378A)
T1 construct: truncated SpoIVB (residues Thr75-Ser426), N-terminal 6 × His and mMBP fusion tags
Assay: microscale thermophoresis (MST), RED-NHS labelled protein
Type: binding

T1 sequence (P17896 75-426 S378A): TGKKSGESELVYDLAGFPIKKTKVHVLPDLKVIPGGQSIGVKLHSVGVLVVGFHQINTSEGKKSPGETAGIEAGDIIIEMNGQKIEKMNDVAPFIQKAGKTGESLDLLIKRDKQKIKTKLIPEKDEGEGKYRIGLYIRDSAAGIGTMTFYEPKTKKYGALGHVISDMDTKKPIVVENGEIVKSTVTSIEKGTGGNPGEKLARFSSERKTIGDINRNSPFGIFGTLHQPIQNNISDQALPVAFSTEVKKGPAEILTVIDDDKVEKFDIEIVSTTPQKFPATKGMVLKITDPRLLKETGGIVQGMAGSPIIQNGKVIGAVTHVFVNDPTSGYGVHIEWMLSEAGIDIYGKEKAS

Compound: N=C(N)c1ccccc1 [benzamidine]
- Kd: 660 ± 28 µM
